Data set [1] is described as follows: Solid state stability (storage for 1 month, HPLC assay). Conditions: glass bottle. The data set is classed as physicochemical.
Description: The solid state stability of the drug substance was determined by storing approximately 1.0 g of the material in a glass bottle at a) 40° C./75 % Relative Humidity (RH), open exposure, for 1 month and b) at 50° C., closed, for 1 month. The material was assayed by HPLC for final content and degradation products in both cases.
Data set [2] can be described thus: Solubility in water (visual, confirmed by HPLC assay of a saturated solution). Type of data set: physicochemical. Conditions: thermodynamic from solid. The procedure: The solubility of the material was determined by adding water in aliquots from […] to approximately 100 mg of drug substance until the powder had dissolved. The visual solubility was confirmed by an HPLC assay of a saturated solution. Solubility: >100 mg/ml.

A value given as a limit tells only on which side of the number the result lay.

The term solubility denotes the dissolved amount per volume that the medium holds. Read a low solubility as little dissolved substance.

Turning to `CN(CCOc1ccc(CC2SC(=O)NC2=O)cc1)c1ccccn1.[K]` (centres unmarked) [Potassium Salt, 5-[4-[2-(N-Methyl-N-(2-pyridyl)amino)ethoxy]benzyl]thiazolidine-2,4-dione, potassium salt], the “Degradation (HPLC, degradation products)” value was “No significant degradation observed” in data set [1] (40° C./75% RH, open exposure) and “No significant degradation observed” in data set [1] (50° C., closed). Besides, the “HPLC assay for final content” value in data set [1] (40° C./75% RH, open exposure) came to 101 % initial; in data set [1] (50° C., closed), 99 % initial. The solubility in data set [2] was more than 100 mg/mL.
